Source: patent EP3638283B1, “ANTAGONISTS OF CAV2.3 R-TYPE CALCIUM CHANNELS FOR THE TREATMENT OF NEURODEGENERATIVE DISEASES” (Lario Therapeutics Ltd., priority 2017, dated 2018)
Read-outs that look alike come from different tables or passages of the source.

Tests used:
[1] = test system: SN DA neurons; details: neurotoxin PD-mouse models; pharmacological L-type calcium channel inhibition (Ilijic et al., 2011; Ortner et al., 2017); cited from earlier work
[2] = Parkinson Study, 2013; cited from earlier work
[3] = test system: SN DA neurons; details: cited from earlier work
[4] = test system: SN DA neurons; experiment: Dopamine auto-inhibition of SN DA neuron pacemaker activity, patch-clamp recordings in mouse brain slices; assay type: cell-based; details: isradipine 300nM; dopamine 100 µM
[5] = test system: SN DA neurons; assay type: cell-based, mouse
[6] = test system: SN DA neurons; assay type: cell-based, mouse; remark: listed apart in the source
[7] = molecular target: T1, voltage-sensitive A-type Kv4.3 K+ channels (Homo sapiens, UniProt Q9UK17); details: Kimm & Bean 2014; cited from earlier work
T1 sequence (Q9UK17 1-655): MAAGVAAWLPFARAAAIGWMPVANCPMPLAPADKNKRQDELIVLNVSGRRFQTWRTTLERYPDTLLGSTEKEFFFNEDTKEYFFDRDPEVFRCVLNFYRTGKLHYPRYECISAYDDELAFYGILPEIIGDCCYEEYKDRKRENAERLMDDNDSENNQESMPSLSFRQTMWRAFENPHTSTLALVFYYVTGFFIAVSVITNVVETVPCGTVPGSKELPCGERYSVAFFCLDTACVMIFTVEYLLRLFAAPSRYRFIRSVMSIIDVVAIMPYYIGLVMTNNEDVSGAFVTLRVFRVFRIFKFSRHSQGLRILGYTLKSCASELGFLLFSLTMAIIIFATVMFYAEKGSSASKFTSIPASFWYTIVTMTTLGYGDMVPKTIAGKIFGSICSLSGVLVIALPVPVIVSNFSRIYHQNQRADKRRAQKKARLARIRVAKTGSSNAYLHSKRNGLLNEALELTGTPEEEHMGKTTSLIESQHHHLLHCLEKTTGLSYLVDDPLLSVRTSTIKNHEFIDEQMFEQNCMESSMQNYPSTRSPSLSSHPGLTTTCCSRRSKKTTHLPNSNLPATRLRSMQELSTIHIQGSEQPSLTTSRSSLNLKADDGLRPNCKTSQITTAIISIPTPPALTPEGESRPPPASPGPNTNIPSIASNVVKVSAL

In the case of COC(=O)C1=C(C)NC(C)=C(C(=O)OC(C)C)C1c1cccc2nonc12 (stereo not drawn) [isradipine], the “SN DA neuroprotection” value [1] is listed as “inconclusive findings”, the maximal tolerable dosis [2] is listed as 10 mg/day and the “somatic activity-dependent Ca^2+ oscillations” value ([3]; cell body of WT SN DA neurons, in the presence of isradipine (Ortner et al., 2017)) is listed as “not significantly affected”. For the same compound, the “sensitivity of activity-dependent Ca^2+ oscillations in SN DA neurons to the blocker” value ([3]; distal dendrites versus cell-bodies (Guzman et al., 2010; Ortner et al.)) was “only in distal dendrites but not in the cell-bodies” and the “sensitized dopamine-autoinhibition of SN DA neurons” value [4] was “did not substantially alter”.
In the case of SNX-482, the “action potential-induced somatic Ca^2+ transients” value [5] is given as “significantly reduced”, the “D2-AR responses of adult SN DA neurons (dopamine-autoinhibition)” value [6] is given as “desensitized D2-AR responses” and the “affinity of inhibition of A-type Kv4.3 K+ channels” value [7] is given as “high nanomolar affinity”.
In the case of ω-conotoxin MVIIC [[…]-conotoxin MVIIC], the “sensitized dopamine-autoinhibition of SN DA neurons” value [6] is reported as “did not substantially alter”.
